Consider 23 compounds from patent publication US20260226069A1, “GCN2 AND PERK KINASE MODULATORS AND METHODS OF USE THEREOF” (Deciphera Pharmaceuticals, LLC, priority 2023, published 2026).

Experiment [1] addresses T1, GCN2 kinase (Homo sapiens, UniProt Q9P2K8).
T1 construct: G556E with a; purchased Carna Biosciences
Kind of experiment: Biochemical assay for GCN2 (TR-FRET kinase activity assay). Conditions: 2 nM GCN2, 1 mM ATP, 3-hour incubation. How it is done:
Biochemical assay for GCN2
Activity of GCN2 kinase was determined using a TR-FRET kinase activity assay (e.g., Analytical Biochemistry, 2006, 356, 108-116). Assays were conducted in 384-well plates (13 μL assay volume) using 2 nM GCN2 (Carna Biosciences), 130 nM GFP-EIf2α (Invitrogen), 0.2 mg/mL E. coli tRNA (sigma) and 1 mM ATP in kinase buffer (Invitrogen). Inhibition of GCN2 was measured by adding serial diluted test compound (final assay concentration of 0.5% DMSO) followed by a 3-hour incubation. Tb-peIF2α (pSer52) antibody (Invitrogen) (2 nM final assay concentration) in kinase buffer containing EDTA (final assay concentration of 20 mM) was added. After a 60 min incubation at room temperature, TR-FRET was monitored using an excitation wavelength of 340 nm and emission wavelengths of 490 nm and 520 nm. The emission ratio (520/490) at each compound concentration of was converted to percent inhibition using controls (i.e., reaction with no test compound and reaction with a known inhibitor) and IC50 values were calculated by fitting a four-parameter sigmoidal curve to the data using Prism (GraphPad software).

The target of experiment [2] is T2, PERK kinase (Homo sapiens, UniProt Q9NZJ5, A704S).
T2 construct: GST (with thrombin site LVPRGS); purchased Beryllium
T2 sequence (Q9NZJ5 with tags, fused parts or gaps A704S): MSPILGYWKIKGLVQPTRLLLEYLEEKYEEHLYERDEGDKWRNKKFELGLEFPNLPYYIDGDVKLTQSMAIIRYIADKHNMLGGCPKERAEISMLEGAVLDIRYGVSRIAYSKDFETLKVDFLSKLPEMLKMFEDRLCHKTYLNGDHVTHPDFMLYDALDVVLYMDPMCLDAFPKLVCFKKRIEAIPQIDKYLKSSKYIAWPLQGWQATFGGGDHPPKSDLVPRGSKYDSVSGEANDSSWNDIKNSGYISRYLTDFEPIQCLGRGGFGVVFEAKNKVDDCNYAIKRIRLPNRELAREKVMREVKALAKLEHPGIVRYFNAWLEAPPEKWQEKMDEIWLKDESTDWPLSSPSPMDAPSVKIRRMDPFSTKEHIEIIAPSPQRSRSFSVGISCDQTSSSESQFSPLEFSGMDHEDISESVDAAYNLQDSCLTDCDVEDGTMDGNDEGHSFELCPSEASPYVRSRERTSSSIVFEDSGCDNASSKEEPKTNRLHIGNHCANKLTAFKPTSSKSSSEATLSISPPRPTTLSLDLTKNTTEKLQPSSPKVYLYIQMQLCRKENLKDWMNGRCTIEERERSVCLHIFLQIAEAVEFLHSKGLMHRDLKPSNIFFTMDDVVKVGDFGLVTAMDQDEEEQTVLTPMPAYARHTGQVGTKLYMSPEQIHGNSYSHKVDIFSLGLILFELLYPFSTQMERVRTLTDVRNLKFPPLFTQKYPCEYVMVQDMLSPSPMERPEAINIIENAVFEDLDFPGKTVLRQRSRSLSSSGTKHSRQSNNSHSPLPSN
Kind of experiment: Biochemical assay for PERK (coupled pyruvate kinase/lactate dehydrogenase assay). Conditions: 10 nM PERK, 1 mM ATP, reaction rate 2-3 h time frame, 30° C. How it is done:
Biochemical Assay for PERK
Activity of PERK kinase was determined spectroscopically using a coupled pyruvate kinase/lactate dehydrogenase assay that continuously monitors the ATP hydrolysis-dependent oxidation of NADH (Science, 2000, 289, 1938-1942). Assays were conducted in 384-well plates (100 μL final volume) using 10 nM PERK (from Beryllium), 0.25 mg/mL Myelin Basic Protein substrate, 1.5 units pyruvate kinase, 2.1 units lactate dehydrogenase, 1 mM phosphoenol pyruvate, 0.28 mM NADH and 1 mM ATP in assay buffer (100 mM Tris, pH 7.5, 15 mM MgCl2, 0.5 mM DTT, 0.004% (w/v) BSA, and 0.004% Triton X-100). Inhibition of PERK was measured by adding serial diluted test compound (final assay concentration of 1% DMSO). A decrease in absorption at 340 nm was monitored continuously for 6 hours at 30° C. on a multi-mode microplate reader (BioTek). The reaction rate was calculated using the 2-3 h time frame. The reaction rate at each concentration of compound was converted to percent inhibition using controls (i.e., reaction with no test compound and reaction with a known inhibitor) and IC50 values were calculated using software routines in Prism (GraphPad software).

Experiment [3] concerns ASNase treated CCRF-CEM cells. Kind of experiment: CCRF-CEM ASNase cell proliferation assay, phenotypic assay for cellular inhibition of GCN2. To be noted: Homo sapiens, 1 mU/mL ASNase, 72 h, resazurin. Type of experiment: cell-based. How it is done: CCRF-CEM ASNase Cell Proliferation Assay, a Phenotypic Assay for Cellular Inhibition of GCN2.
CCRF-CEM leukemia cells (catalog #CCL-116) were obtained from the American Type Culture Collect (ATTC, Manassas, VA). Cells were grown in RPMI-1640 medium supplemented with 10% heat-inactivated fetal bovine serum (Invitrogen, Carlsbad, CA) and 1% Penicillin/Streptomycin/L-Glutamine at 37° C., 5% CO2, and 95% humidity. Cells were expanded until reaching one million cells per mL at which time they are subcultured or harvested for assay use. Ten thousand cells per well in 200 μL RPMI-1640 supplemented with 10% heat-inactivated fetal bovine serum and 1% Penicillin/Streptomycin were dispensed into a 96-well black clear bottom plate. A serial dilution of test compound and 1 mU/mL ASNase was added in triplicate and plates were incubated for 72 h at 37° C., 5% CO2, and 95% humidity. At the end of the incubation, 40 μL of a […] solution of resazurin (Sigma, St. Louis, MO) in PBS was added to each well of the plate and plates were incubated for an additional 6 h at 37° C., 5% CO2, and 95% humidity. Plates were read on a Synergy2 or equivalent reader (Biotek, Winooski VT) using an excitation of 540 nm and an emission of 600 nm. Data was analyzed using GraphPad Prism software (GraphPad, San Diego, CA) to calculate IC50 values.
For orientation: Resazurin is reduced to fluorescent resorufin, in cell work by metabolically active cells.

The subject of experiment [4] is ATF4 in Thapsigargin stimulated CCRF-CEM cells. Kind of experiment: CCRF-CEM TG ATF4 ELISA, phenotypic assay for cellular inhibition of PERK preactivated by thapsigargin. Type of experiment: cell-based. Conditions: Homo sapiens, 3 h, compound three hours then 1 μM thapsigargin for an additional hour. How it is done:
CCRF-CEM TG ATF4 ELISA, a Phenotypic Assay for Cellular Inhibition of PERK Preactivated by Thapsigargin (TG)
CCRF-CEM leukemia cells (catalog #CCL-116) were obtained from the American Type Culture Collection (ATTC, Manassas, VA). Briefly, cells were grown in RPMI-1640 medium supplemented with 10% heat-inactivated fetal bovine serum (Invitrogen, Carlsbad, CA) and 1% Penicillin/Streptomycin/L-Glutamine at 37° C., 5% CO2, and 95% humidity. Cells were expanded until reaching one million cells per mL at which time they were subcultured or harvested for assay use. One million five hundred thousand cells per well in 1 mL complete growth medium were dispensed into 12-well plates and incubated overnight. A serial dilution of test compound was added and cells were incubated at 37° C., 5% CO2, and 95% for three hours, then 1 μM thapsigargin was added and cells were incubated for an additional hour at 37° C., 5% CO2, and 95%. Cells were lysed then ATF4 levels were measured using an ELISA assay (Proteintech, Rosemont, IL). Absorbance was measured at 450 nm and 544 nM using a Synergy2 or equivalent reader (Biotek, Winooski VT). Data was analyzed using PRISM software (Graphpad, San Diego, CA) to calculate IC50 values.
In general terms: An ELISA detects its analyte on a solid surface through an enzyme-linked reagent.

Usually IC50 stands for the concentration that gives 50% inhibition.

Turning to `Cn1cc(-c2cccc(NS(=O)(=O)c3ccc(Cl)c(CO)c3F)c2F)c2c(N)ncnc21` [Example 5], the IC50 in experiment [1] is 1 to 10 µM; in experiment [2], 0.5 to 1 µM; in experiment [3], 1 to 10 µM; in experiment [4], 1 to 10 µM.
Consider `Cc1c(CO)cc(F)cc1S(=O)(=O)Nc1cccc(-c2nc(C)n3ccnc(N)c23)c1F` [Example 6], for which the IC50 in experiment [1] was 1 to 10 µM; in experiment [2], at most 0.1 µM; in experiment [3], 1 to 10 µM; in experiment [4] it was 1 to 10 µM.
For the compound `Cc1nc(-c2cccc(NS(=O)(=O)c3cc(Cl)cc(CO)c3F)c2F)c2c(N)nccn12` [Example 7], the IC50 in experiment [1] was 0.5 to 1 µM; in experiment [2] it was at most 0.1 µM; in experiment [3], 1 to 10 µM; in experiment [4] it was 1 to 10 µM.
In the case of `Cc1nc(-c2cccc(NS(=O)(=O)c3cc(F)cc(CO)c3Cl)c2F)c2c(N)nccn12` [Example 8], the IC50 in experiment [1] is 0.5 to 1 µM; in experiment [2], at most 0.1 µM; in experiment [3], 0.5 to 1 µM; in experiment [4], 0.1 to 0.5 µM.
As for `Cn1cc(-c2cccc(NS(=O)(=O)c3cc(CO)c(F)cc3F)c2F)c2c(N)ncnc21` [Example 10], the IC50 was in the range of 1 to 10 µM in experiment [1], 0.1 to 0.5 µM in experiment [2], 1 to 10 µM in experiment [3] and 1 to 10 µM in experiment [4].
As to `COc1c(CO)cc(Cl)cc1S(=O)(=O)Nc1cccc(-c2nc(C)n3ccnc(N)c23)c1F` [Example 11], the IC50 in experiment [1] is 1 to 10 µM; in experiment [2], 0.1 to 0.5 µM; in experiment [3], 1 to 10 µM; in experiment [4] it was 0.5 to 1 µM.
`Cc1nc(-c2cccc(NS(=O)(=O)c3cc(F)cc(CO)c3F)c2F)c2c(N)nccn12` [Example 15]: the IC50 in experiment [1] lay within 1 to 10 µM; in experiment [2], 0.1 to 0.5 µM; in experiment [3], 1 to 10 µM; in experiment [4], 1 to 10 µM.
Regarding `COCCNc1nc(-c2cccc(NS(=O)(=O)c3cc(Cl)cc(CO)c3Cl)c2F)c2c(N)nccn12` [Example 23], the IC50 in experiment [1] was 0.1 to 0.5 µM; in experiment [2], at most 0.1 µM; in experiment [3] it was 0.1 to 0.5 µM; in experiment [4], 0.1 to 0.5 µM.
For the compound `Cn1cc(-c2cccc(NS(=O)(=O)c3ccc(F)c(CO)c3Cl)c2F)c2c(N)ncnc21` [Example 24], the IC50 in experiment [1] lay in the range of 1 to 10 µM; in experiment [2], 0.1 to 0.5 µM; in experiment [3], 1 to 10 µM; in experiment [4] it was 1 to 10 µM.
As to `CCNc1nc(-c2cccc(NS(=O)(=O)c3cc(Cl)cc(CO)c3Cl)c2F)c2c(N)nccn12` [Example 27], the IC50 in experiment [1] was at most 0.1 µM; in experiment [2] it was at most 0.1 µM; in experiment [3] it was 0.1 to 0.5 µM; in experiment [4], 0.1 to 0.5 µM.
With `COc1ncc(Cl)cc1S(=O)(=O)Nc1cc(F)c(F)c(-c2nc(C)n3ccnc(N)c23)c1` [Example 28], the IC50 in experiment [1] is 1 to 10 µM; in experiment [2] it was 0.5 to 1 µM; in experiment [3], 1 to 10 µM; in experiment [4], 1 to 10 µM.
On to `CCC(C)(C)C(=O)OCc1cc(Cl)cc(S(=O)(=O)Nc2cccc(-c3nc(C)n4ccnc(N)c34)c2F)c1Cl` [Example 29], for which the IC50 in experiment [1], in experiment [2], in experiment [3] and in experiment [4] was 1 to 10 µM each time.
Turning to `CC(=O)OCc1cc(Cl)cc(S(=O)(=O)Nc2cccc(-c3nc(C(C)(C)C)n4ccnc(N)c34)c2F)c1Cl` [Example 30], the IC50 in experiment [1] lay within 1 to 10 µM; in experiment [2], 0.1 to 0.5 µM; in experiment [3], 1 to 10 µM; in experiment [4], 1 to 10 µM.
As to `Cc1nc(-c2cccc(NS(=O)(=O)c3cc(Cl)cc(COC(=O)C4CC4)c3Cl)c2F)c2c(N)nccn12` [Example 31], the IC50 in experiment [1], in experiment [2], in experiment [3] and in experiment [4] was 1 to 10 µM in each case.
As for `CCC(=O)OCc1cc(Cl)cc(S(=O)(=O)Nc2cccc(-c3nc(C)n4ccnc(N)c34)c2F)c1Cl` [Example 32], the IC50 is 0.5 to 1 µM in experiment [2], 1 to 10 µM in experiment [3] and 1 to 10 µM in experiment [4].
As to `CCCC(=O)OCc1cc(Cl)cc(S(=O)(=O)Nc2cccc(-c3nc(C)n4ccnc(N)c34)c2F)c1Cl` [Example 33], the IC50 in experiment [1] lay in the range of 1 to 10 µM; in experiment [2], 0.5 to 1 µM; in experiment [3], 0.1 to 0.5 µM; in experiment [4] it was 0.1 to 0.5 µM.
For `Cn1cc(-c2cccc(NS(=O)(=O)c3ccc(Br)c(C(F)(F)F)c3)c2F)c2c(N)ncnc21` [Example 36], the IC50 in experiment [1] was in the range of 1 to 10 µM; in experiment [2], 0.1 to 0.5 µM; in experiment [3], 1 to 10 µM; in experiment [4] it was 1 to 10 µM.
`COc1cc(F)c(S(=O)(=O)Nc2cccc(-c3cn(C)c4ncnc(N)c34)c2F)cc1Cl` [Example 37]: the IC50 is 0.1 to 0.5 µM in experiment [1], at most 0.1 µM in experiment [2], 0.5 to 1 µM in experiment [3] and 0.1 to 0.5 µM in experiment [4].
For `COC(=O)c1cccc(S(=O)(=O)Nc2cccc(-c3cn(C)c4ncnc(N)c34)c2F)c1Cl` [Example 39], the IC50 lay in the range of 1 to 10 µM in experiment [1], 0.1 to 0.5 µM in experiment [2], 1 to 10 µM in experiment [3] and 1 to 10 µM in experiment [4].
On to `COC(=O)c1cc(Cl)cc(S(=O)(=O)Nc2cccc(-c3cn(C)c4ncnc(N)c34)c2F)c1Cl` [Example 40], for which the IC50 in experiment [1] was 1 to 10 µM; in experiment [2] it was at most 0.1 µM; in experiment [3] it was 1 to 10 µM; in experiment [4], 1 to 10 µM.
`COc1cc(Cl)c(S(=O)(=O)Nc2cccc(-c3cn(C)c4ncnc(N)c34)c2F)cc1Cl` [Example 41]: the IC50 in experiment [1] is 1 to 10 µM; in experiment [2], at most 0.1 µM; in experiment [3] it was 1 to 10 µM; in experiment [4], 0.1 to 0.5 µM.
Take `Cn1cc(-c2cccc(NS(=O)(=O)c3cc(Cl)cc(Br)c3Cl)c2F)c2c(N)ncnc21` [Example 42]: the IC50 was 0.1 to 0.5 µM in experiment [1], at most 0.1 µM in experiment [2], 1 to 10 µM in experiment [3] and 1 to 10 µM in experiment [4].
In the case of `COc1ccc(S(=O)(=O)Nc2cccc(-c3cn(C)c4ncnc(N)c34)c2F)cc1Cl` [Example 44], the IC50 is 1 to 10 µM in experiment [1], at most 0.1 µM in experiment [2], 1 to 10 µM in experiment [3] and 0.5 to 1 µM in experiment [4].
